# Experiments:
# [1] = system: neural progenitor cells (NPCs); test: Neuronal differentiation of GFP-expressing NPCs co-cultured with differently activated microglia; format: cell-based, mouse; settings: absence of microglia, insulin 0.02 mg/ml
# Description: (iii) Neural progenitor cell (NPC) culture. Coronal sections (2 mm thick) of tissue containing the subventricular zone of the lateral ventricle were obtained from the brains of adult C57B16/J mice. […] After centrifugation at 110×g for 15 min at room temperature, the tissue was mechanically dissociated by pipette trituration. […] Cell proliferation rates and cell survival in vitro were determined by staining with 5-bromo-2′-deoxyuridine (BrdU, 2.5 μM; Sigma-Aldrich, St. Louis). For quantification of live and dead cells, live cultures were stained with 1 μg/ml propidium iodide (Molecular Probes, Invitrogen, Carlsbad, Calif.) and 1 μg/ml Hoechst 33342 (Sigma-Aldrich, St. Louis), and cells were counted using Image-Pro (Media Cybernetics, Silver Spring, Md.), as described (Hsieh et al., 2004) (vi) Immunocytochemistry. […]
# [2] = system: neural progenitor cells (NPCs); test: Oligodendrocyte differentiation (NG2, RIP, GalC) of NPCs co-cultured with activated microglia; format: cell-based, mouse; settings: 5 days, presence of insulin
# Description: (iii) Neural progenitor cell (NPC) culture. Coronal sections (2 mm thick) of tissue containing the subventricular zone of the lateral ventricle were obtained from the brains of adult C57B16/J mice. The tissue was minced and then incubated for digestion at 37° C., 5% CO2 for 45 min in Earle's balanced salt solution containing 0.94 mg/ml papain (Worthington, Lakewood, N.J.) and 0.18 mg/ml of L-cysteine and EDTA. After centrifugation at 110×g for 15 min at room temperature, the tissue was mechanically dissociated by pipette trituration. Cells obtained from single-cell suspensions were plated (3500 cells/cm^2) in 75-cm^2 Falcon tissue-culture flasks (BD Biosciences, Franklin Lakes, N.J.), in NPC-culturing medium [Dulbecco's modified Eagles's medium (DMEM)/F12 medium (Gibco/Invitrogen, Carlsbad, Calif.) containing 2 mM L-glutamine, 0.6% glucose, 9.6 μg/ml putrescine, 6.3 ng/ml progesterone, 5.2 ng/ml sodium selenite, 0.02 mg/ml insulin, 0.1 mg/ml transferrin, 2 μg/ml heparin (all from Sigma-Aldrich, Rehovot, Israel), fibroblast growth factor-2 (human recombinant, 20 ng/ml), and epidermal growth factor (human recombinant, 20 ng/ml; both from Peprotech, Rocky Hill, N.J.)]. Spheres were passaged every 4-6 days and replated as single cells. Green fluorescent protein (GFP)-expressing neural progenitor cells (NPCs) were obtained as previously described (Pluchino et al., 2003). […]
substance,measurement,setting,value
insulin: insulin added to differentiation medium (0.02 mg/ml),numbers of GFP+/β-III-tubulin+ cells in NPC cultures,[1],did not increase
same,NG2+ cells,[2],did not affect the incidence of NG2^+ cells

# Source: patent publication US20090191173A1, “Induction Of Neurogenesis And Stem Cell Therapy In Combination With Copolymer 1” (priority 2004, published 2009)
